Read-outs that look alike come from different tables or passages of the source.
Columns and labels:
Thrombocyte aggregation = experiment: Antithrombotic activity: collagen-induced thrombocyte aggregation in platelet-rich plasma after oral administration (Born and Cross); assay type: in vivo, rat; settings: for inhibition at 10 mg/kg / inhibition at 5 mg/kg: po, read-out: Percentage inhibition of aggregation
Method: 1. Antithrombotic activity (see BORN and CROSS, J. Physiol. 170, 397 (1964)):
Groups of three male rats weighing about 500 g are given the test substances, suspended in 1% tylose (A and B) or in distilled water (C), in a volume of 0.2 ml per 100 g of the weight of the animal, by esophageal tube. Shortly before the blood samples are taken (1 hour after administration of the substance) the animals are anesthetised with sodium pentobarbital (50 mg/kg i.p.). After the abdomen has been opened up, the required quantity of blood is taken by puncturing the aorta.
The blood is treated with sodium citrate (0.2% final concentration) to prevent it coagulating. Since the aggregation before and after administration of the substance in rats cannot be measured in the same animal, sets of animals from which the plasma has been pooled are compared. In this way, multiple measurements can be made.
Thrombocyte aggregation is measured in platelet-rich plasma (PRP) (quantity of plasma for each test: 1 ml). In order to obtain the PRP, the blood is centrifuged for 10 minutes at 1,000 to 1,200 revolutions per minute (approx. 150 g). The low-platelet plasma for calibrating the aggregometer is obtained by centrifuging (4,000 rpm for 10 minutes).
The pattern of the decrease in optical density of the platelet suspension after the addition of collagen is measured photometrically and recorded. The height of the curve in mm measured at the moment of maximum light transmittance is the measurement of the intensity of aggregation. A 6-channel aggregometer is used for the measurements.
The quantity of collagen (2 to 5 μl/ml of plasma) is such that an irreversible reaction curve is obtained.
The sets of animals treated with the substance are compared with untreated control groups.

[1] = Tolerability: toxic side effects at the maximum dosages administered; assay type: in vivo
mouse = experiment: Approximate acute toxicity on the mouse after oral administration; assay type: in vivo; settings: 250 mg/kg oral, group of 10 animals, observation period of 14 days
Method: The approximate acute toxicity of substance B is tested on the mouse after oral administration of a dosage of 250 mg/kg to a group of 10 animals.

[2] = 10 mg/kg p.o., rat, 1 hour after administration, collagen, control 130 (A), 110 (B)
[3] = maximum dosages administered (10 mg/kg p.o.)
[4] = 5 mg/kg p.o., rat, 1 hour after administration, collagen, control 108 (B), 113 (C)

Compound	Intensity of Aggregation, Height of curve (opt. density), Substance (Thrombocyte aggregation; [2]) [mm]	inhibition at 10 mg/kg (Thrombocyte aggregation; Rattus norvegicus, 1 h) [%]	toxic side effects [1, 3]	Intensity of Aggregation, Height of curve (opt. density), Substance (Thrombocyte aggregation; [4]) [mm]	inhibition at 5 mg/kg (Thrombocyte aggregation; Rattus norvegicus, 1 h) [%]	Acute toxicity, deaths (mouse)	inhibition at 5 mg/kg (Thrombocyte aggregation; 5 mg/kg p.o., rat, 1 hour after administration, collagen) [%]	toxic side effects ([1]; in vivo, po, 10 mg/kg)
COc1cc2c(cc1OC)CC[N+](Cc1ccccc1Cl)=C2.O=S(=O)([O-])O [A, 2-(2-Chlorobenzyl)-6,7-dimethoxy-3,4-dihydro-isoquinolinium hydrogensulphate]	69	47	do not show any toxic side effects	–	–	–	–	–
Clc1ccccc1C[N+]1=Cc2ccccc2CC1.O=S(=O)([O-])O [B, 2-(2-Chlorobenzyl)-3,4-dihydro-isoquinolinium hydrogensulphate]	0	100	do not show any toxic side effects	0	100	None of the animals died	–	–
COc1cc2c(cc1OC)CC[N+](Cc1cc(OC)c(OC)c(OC)c1)=C2.[Cl-] [C, 2-(3,4,5-Trimethoxybenzyl)-6,7-dimethoxy-3,4-dihydro-isoquinolinium chloride]	–	–	–	10	–	–	89	do not show any toxic side effects
